# Molecular target: Human cytomegalovirus protease (assemblin)
# Assay: Inhibitory concentration against human cytomegalovirus protease variant expressing a beta galactosidase reporter gene
row,Structure (SMILES),IC50
1,"Cc1c(NC(=O)CN(C)C)ccc2nc(N[C@H](C)c3ccccc3)oc(=O)c12 [2-Dimethylamino-N-[5-methyl-4-oxo-2-(1-phenyl-ethylamino)-4H-benzo[d][1,3]oxazin-6-yl]-acetamide]",2200 nM
2,"Cc1cccc2nc(NC(C)C)oc(=O)c12 [2-Isopropylamino-5-methyl-benzo[d][1,3]oxazin-4-one]",4000 nM
3,"Cc1cccc2nc(N[C@H](C)c3ccc(Br)cc3)oc(=O)c12 [2-[1-(4-Bromo-phenyl)-ethylamino]-5-methyl-benzo[d][1,3]oxazin-4-one]",460 nM
4,"Cc1c(NC(=O)c2ccccn2)ccc2nc(N[C@H](C)c3ccccc3)oc(=O)c12 [Pyridine-2-carboxylic acid [5-methyl-4-oxo-2-(1-phenyl-ethylamino)-4H-benzo[d][1,3]oxazin-6-yl]-amide]",720 nM
5,"Cc1c(NC(=O)OC(C)(C)C)ccc2nc(N[C@H](C)c3ccccc3)oc(=O)c12 [[5-Methyl-4-oxo-2-(1-phenyl-ethylamino)-4H-benzo[d][1,3]oxazin-6-yl]-carbamic acid tert-butyl ester]",1300 nM
